Assays:
Assay type in all cases: in vivo
[1] = tested on: Pyricularia oryzae; conditions: foliage spray on rice seedlings (cv. […]), number of lesions six days after the inoculation
[2] = tested on: Sphaerotheca fuliginea; assay: Controlling effect on Sphaerotheca fuliginea by foliage application (pot experiment); conditions: foliage spray on cucumber (cv. TSUKUBASHIROIBO) first leaves, infected area after 10 days in greenhouse at 20° C.
Procedure, shortened: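 First leaves of cucumber seedlings, 2-3 weeks old, were sprayed with compound (DMF solution diluted in water with spreader). They were inoculated 24 h later with a Sphaerotheca fuliginea conidia spray and kept 10 days at 20° C in a greenhouse. Percent control was calculated from infected leaf area.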

[3] = tested on: Erysiphe graminis f. sp. tritici; assay: Controlling effect on Erysiphe graminis f. sp. tritici by foliage application (pot experiment); conditions: foliage spray on wheat (cv. NORIN No. 61) seedlings, infected area after 10 days in greenhouse at 20° C.
Procedure, shortened: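 Wheat seedlings (cv. NORIN No. 61, 2-3 weeks old) sprayed with compound in DMF diluted in water with spreader, then inoculated with conidia 24 hours later. Kept in greenhouse at 20 °C for 10 days; percent control calculated from infected leaf area.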

[4] = tested on: Puccinia coronata; assay: Controlling effect on Puccinia coronata by foliage application (pot experiment); conditions: foliage spray on oat (cv. PC-38) seedlings, infected area after 1 day moist chamber and 8 days greenhouse at 20° C.
Procedure: The following Test Examples illustrate the effects of the fungicide of the present invention. (I. Controlling effects on various plant diseases by foliage application (pot experiment)) A test compound was dissolved in a small amount of N,N-dimethylformamide, and the solution was diluted to a given concentration with distilled water containing a spreader. Thus, a liquid sample to be tested was prepared. The liquid sample was sprayed to test plants, and 24 hours thereafter, pathogens were inoculated by the method described below. […] The seeds of oat (cv.: PC-38) were sown in plastic cups (each 9 cm in diameter), followed by cultivation for 2 to 3 weeks. The test compound in the form of a solution or suspension was sprayed to the seedlings. Spores of Puccinia coronata cultured on oat leaves were collected, diluted about 10-fold with talc, and sprayed to the test plants to inoculate the plants with the pathogen. After the inoculation, the plants were kept in a moist chamber at 20° C. for 1 day and then in a greenhouse at 20° C. for 8 days. The infected area on the leaf was observed, and the percent control was calculated.

[5] = tested on: Pseudoperonospora cubensis; assay: Controlling effect on Pseudoperonospora cubensis by foliage application (pot experiment); conditions: foliage spray on cucumber (var. TSUKUBASHIROIBO) first leaves, lesion area after 10 days in moist chamber at 20° C.
Procedure, shortened: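 Cucumber plants grown 2–3 weeks were sprayed on first leaves with compound (DMF solution diluted in water with spreader); 24 h later, Pseudoperonospora cubensis zoosporangia suspension dropped on leaves. Plants held in moist chamber at 20° C for 10 days; lesion area observed and percent control calculated.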

Compound | Controlling effect on PYricularia orYzae by foliage application at 500 ppm (percent control) [1] [percent control] | Controlling effect on Sphaerotheca fuliginea by foliage application at 500 ppm (percent control) [2] [percent control] | Controlling effect on ErYsiphe graminis f. sp. tritici by foliage application at 500 ppm (percent control) [3] [percent control] | Controllng effect on Puccinia coronata by foliage application at 500 ppm (percent control) [4] [percent control] | Controlling effect on Pseudoperonospora cubensis by foliage application at 500 ppm (percent control) [5] [percent control] | pest or weed control at 500 ppm ([2]; Podosphaera fuliginea, in Cucumis sativus, foliar, 240 h, read-out: Controlling effect on Sphaerotheca fuliginea by foliage application at 500 ppm (percent control)) [%] | pest or weed control at 500 ppm ([3]; Blumeria graminis, foliar, 240 h, read-out: Controlling effect on ErYsiphe graminis f. sp. tritici by foliage application at 500 ppm (percent control)) [%]
CON=C(c1cc(C)on1)c1ccccc1COc1cc(C)ccc1C (mixture of isomers) [Compound No. 436] | 70 | 100 | 90 | 90 | – | – | –
CON=C(c1ccon1)c1ccccc1COc1ccccc1C (mixture of isomers) [compound 312] | 70 | 100 | 100 | 97 | – | – | –
CON=C(C1=NOCC1)c1ccccc1COc1cc(C)ccc1C (mixture of isomers) [compound 1236] | 97 | 100 | 90 | 97 | – | – | –
CON=C(c1cnco1)c1ccccc1COc1ccccc1 (mixture of isomers) [compound 1721] | – | 100 | 90 | 70 | 100 | – | –
CON=C(c1ccccc1COc1cc(C)ccc1C)c1nccn1C (single isomer, unassigned) [136A] | 90 | 100 | 90 | 100 | – | – | –
CON=C(c1ccccc1COc1cc(C)ccc1C)c1nccn1C (single isomer, unassigned) [136B] | 70 | 100 | 70 | 97 | – | – | –
CON=C(c1cc(C)no1)c1ccccc1COc1cc(C)ccc1C (single isomer, unassigned) [636A, 2-(2,5-dimethylphenoxymethyl)phenyl 3-methylisoxazol-5-yl ketone O-methyloxime] | 97 | – | – | 100 | – | 97 | 100
CON=C(c1cc(C)no1)c1ccccc1COc1cc(C)ccc1C (single isomer, unassigned) [636B, 2-(2,5-dimethylphenoxymethyl)phenyl 3-methylisoxazol-5-yl ketone O-methyloxime] | 70 | 100 | 100 | 90 | – | – | –
CON=C(c1noc(C)n1)c1ccccc1COc1cc(C)ccc1C (single isomer, unassigned) [936A] | 97 | 100 | 97 | 90 | – | – | –
CON=C(c1nnco1)c1ccccc1COc1ccccc1C [Compound No. 712] | 90 | 100 | 100 | 100 | – | – | –
CON=C(c1ccccc1Oc1ccccc1)c1nccn1C [compound 161] | – | 100 | 70 | 97 | – | – | –
CON=C(c1ccccc1COc1ccc(Cl)cc1)n1cncn1 [compound 267] | 90 | 100 | 97 | 90 | – | – | –
CCON=C(c1ccccc1COc1ccccc1)n1cncn1 [compound 275] | – | 100 | 90 | 90 | – | – | –
C=CCON=C(c1ccccc1COc1ccccc1)n1cncn1 [compound 278] | – | 97 | 90 | 90 | – | – | –
CON=C(c1nnco1)c1ccccc1COc1ccccc1 [compound 701] | – | 100 | 70 | 97 | 100 | – | –
CON=C(C1=NCCN1C)c1ccccc1COc1ccccc1C [compound 1112] | 97 | 100 | 90 | 70 | – | – | –
CON=C(C1=NCCO1)c1ccccc1COc1cc(C)ccc1C [compound 1328] | 90 | 100 | 90 | 70 | – | – | –
CON=C(C1=NCCN1)c1ccccc1COc1cc(C)ccc1C [compound 1478] | – | 70 | 90 | 70 | – | – | –

From US6362212B1, “Oxime derivative and bactericide containing the same as active ingredient” (Shionogi & Company, Ltd., priority 1994, dated 2002)
